This note sets out measurements from patent publication US5643873A, “Peptides and compounds that bind selectins including endothelial leukocyte adhesion molecule 1” (Affymax Technologies N.V., priority 1994, dated 1997).

Where “and” joins values, the source holds several entries; their conditions need not be identical. Identical values can stand only once. Square brackets hold non-standard residues; d marks the D form. Ends that are not written are not given here. Peptide text beside a SMILES is read from it. Nle = CCCC[C@H](N)C(=O)O

In one assay the target is T1, E-selectin (Homo sapiens, UniProt P16581).
T1 sequence (P16581 22-554): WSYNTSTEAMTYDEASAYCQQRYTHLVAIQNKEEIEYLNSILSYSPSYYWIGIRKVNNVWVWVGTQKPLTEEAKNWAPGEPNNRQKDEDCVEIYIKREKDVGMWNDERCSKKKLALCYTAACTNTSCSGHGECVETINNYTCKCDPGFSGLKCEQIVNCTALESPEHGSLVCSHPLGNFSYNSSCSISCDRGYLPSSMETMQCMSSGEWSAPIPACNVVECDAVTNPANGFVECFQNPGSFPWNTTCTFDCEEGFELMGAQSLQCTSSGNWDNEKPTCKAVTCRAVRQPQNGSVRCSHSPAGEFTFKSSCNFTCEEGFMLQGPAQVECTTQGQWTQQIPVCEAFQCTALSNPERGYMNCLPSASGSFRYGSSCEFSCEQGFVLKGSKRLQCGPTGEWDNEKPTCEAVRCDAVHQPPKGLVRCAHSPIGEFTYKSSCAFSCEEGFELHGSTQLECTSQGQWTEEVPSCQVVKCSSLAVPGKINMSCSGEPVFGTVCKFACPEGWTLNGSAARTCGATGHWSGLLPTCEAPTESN
Put plainly: HL60 cell adhesion assay (labeled HL60 cells adhering to immobilized E-selectin). The settings on record: concentration reducing by 50% the binding of HL60 cells to immobilized E-selectin. Format: cell-based. Further details: truncated form comprising the complete extracellular domain (amino acids 1 through 554); made in house. The procedure: By comparing test wells with control wells (no receptor), one can determine whether a peptide binds to E-selectin specifically. […] In this regard, HL60 cells are known to contain surface glycoconjugates which bind to E-selectin.
Peptides that block the binding of labeled HL60 cells to E-selectin are then evaluated to determine their IC50 -HL60 in the manner also specified in Example 1.
The assay requires HL60 cells labeled with tritiated thymidine. To label the cells, about 10 million HL60 cells are collected by centrifugation (2500 RPM for 3 minutes) and resuspended in 15 mL of DMEM/F12 plus 5% fetal calf serum containing 2 μCi/mL of tritiated thymidine (Amersham). The cells are then placed in a T75 flask and incubated at 37° C. for 24 hours. The cells are then collected by centrifugation, washed twice with RPMI/HEPES/0.1% FCS, and resuspended in the same solution at a concentration of about one to two million cells per mL. About 100 μL of this cell preparation are used per well of a 96-well microtiter dish in the assay.
The wells of the microtiter dish were first coated with the anti-receptor immobilizing antibody, an anti-HPAP-tail antibody, using about 2.5 μg of antibody per well. […]
After the test compound incubation period, 100 μL of labeled HL60 cells were added to each well, and the microtiter plate was incubated at 4° C. for 30 minutes. […] After this incubation, aliquots were removed from each well and placed in scintillation vials; scintillation fluid was added to each vial; and the radioactivity in each aliquot was quantitated by liquid scintillation counting. […]
The concentration of any peptide or peptide mimetic required to reduce by 50% the binding of HL60 cells to E-selectin as per the assay of Example 1 is determined by the following procedure. […] (SEQ ID NO 23), was determined. […]
The IC50 is the midpoint of a concentration-inhibition curve. As for DITWDQLWDLMK, the concentration for half-maximal inhibition (IC50) was < 10 µM and 10 µM.
HITWDQLWNVMN: the half-inhibitory concentration (IC50) is 50 µM and 100 µM and ~50 µM.

Still in this assay, the particulars now being: peptide at 200 μM, FIG. 1.
HITWDQLWNVMN: the “blocking of HL60 cell binding that occurred in the absence of added compound” value is recorded as “over 80%”.

The target in another assay is T1, E-selectin. In words: IC50-standard competitive binding assay (radiolabeled standard peptide on immobilized E-selectin). Further details: truncated form comprising the complete extracellular domain (amino acids 1 through 554); made in house; a baculovirus soluble form is also mentioned as an option. The settings on record: inhibits 50% of binding of radiolabeled standard […] to E-selectin. The text has this:
This latter peptide has strong binding affinity to E-selectin and, accordingly, was used as a standard in a competitive binding assay with candidate peptides and peptide mimetics in order to determine relative binding affinities for E-selectin.
This example measures the concentration of peptide or peptide mimetic required to inhibit 50% of the binding of a radiolabeled standard to E-selectin and the resulting IC50 value is referred to as the "IC50 -standard". In this example, the standard corresponds to the synthetic peptide […] (SEQ ID NO 114) which comprises a known initial seven amino acid group which is a substrate for protein kinase A followed by a 2 amino acid spacer and a 12 amino acid sequence which corresponds to the peptide identified by SEQ ID NO 3 which has an IC50 -HL60 of 10 μM. The peptide is radiolabeled by phosphorylation using either […] or ^33 P phosphate by conventional methods via the protein kinase A. The example is a competitive assay in which 6.5 picograms at 1400 Ci/mmol (65000 cpm) of radiolabelled standard (1400 Ci/mmol) is combined with a titered amount of candidate peptide or peptide mimetic in a constant volume of 30 μL. The combined solution is then added to E-selectin immobilized onto a solid surface in the manner described above. The resulting mixture is then incubated for about 120 minutes to permit equilibrium binding to be achieved. Afterwards, unbound materials are separated from bound materials by conventional methods (e.g., washing) and the amount of the […] bound to E-selectin is determined by scintillation counting. The assay is repeated over several concentrations of candidate peptide or peptide mimetic and the results are entered into a graph whose y axis is the amount of radiolabeled standard bound to E-selectin (measured in cpm) and the x axis is the amount of candidate peptide or peptide mimetic. The results are graphically extrapolated to determine the concentration at which the peptide or peptide mimetic will reduce by 50% the amount of radiolabeled standard bound to E-selectin. This concentration is taken as the IC50 -standard for that peptide or peptide mimetic.
For QITWAQLWNMMK, the 50% inhibitory concentration (IC50) is 0.012 µM.
Compound `CC[C@H](C)[C@H](NC(=O)[C@@H](N)CC(=O)O)C(=O)N[C@H](C(=O)N[C@@H](Cc1c[nH]c2ccccc12)C(=O)N[C@H](CC(=O)O)C(=O)N[C@@H](CCC(N)=O)C(=O)N[C@@H](CC(C)C)C(=O)N[C@@H](Cc1c[nH]c2ccccc12)C(=O)N[C@@H](CC(=O)O)C(=O)N[C@@H](CC(C)C)C(=O)N[C@@H](CCSC)C(=O)N[C@@H](CCCCN)C(=O)O)[C@@H](C)O` (H-DITW[dD]QLWDLMK-OH) showed an IC50 of 0.034 µM.
On the same count and under the same terms, under DYTWFELWDMMQ stands 0.006 µM; under `CCCC[C@H](NC(=O)[C@H](CC(C)C)NC(=O)[C@H](CC(=O)O)NC(=O)[C@H](Cc1c[nH]c2ccccc12)NC(=O)[C@H](CC(C)C)NC(=O)[C@H](CCC(N)=O)NC(=O)[C@H](CC(=O)O)NC(=O)[C@H](Cc1c[nH]c2ccccc12)NC(=O)[C@@H](NC(=O)[C@@H](NC(=O)[C@@H](N)CCC(N)=O)[C@@H](C)CC)[C@@H](C)O)C(=O)N[C@@H](CCCCN)C(=O)O` (H-QITWDQLWDL[Nle]K-OH), 0.065 µM; under `CC[C@H](C)[C@H](NC(=O)[C@@H](N)CC(=O)O)C(=O)N[C@H](C(=O)N[C@@H](Cc1c[nH]c2ccccc12)C(=O)N[C@@H](CC(=O)O)C(=O)N[C@@H](CCC(N)=O)C(=O)N[C@@H](CC(C)C)C(=O)N[C@@H](Cc1c[nH]c2ccccc12)C(=O)N[C@@H](CC(=O)O)C(=O)N[C@@H](CC(C)C)C(=O)N[C@@H](CCSC)C(=O)N[C@H](CCCCN)C(=O)O)[C@@H](C)O` (H-DITWDQLWDLM[dK]-OH), 1 µM.
On to DITWDQLWDLMK, for which the 50% inhibitory concentration (IC50) is 0.003 µM.
DITWDELWKIMN yielded an IC50 of 0.007 µM.
Still for that read-out and setting: under RNMSWLELWEHMK stands 0.035 µM; under AEKWDQLWHVMNPAESQ, 0.065 µM.
The same measure, in the same setting: under `CCCC[C@H](NC(=O)[C@H](CC(C)C)NC(=O)[C@H](CC(=O)O)NC(=O)[C@H](Cc1c[nH]c2ccccc12)NC(=O)[C@H](CC(C)C)NC(=O)[C@H](CCC(N)=O)NC(=O)[C@H](CC(=O)O)NC(=O)[C@H](Cc1c[nH]c2ccccc12)NC(=O)[C@@H](NC(=O)[C@@H](NC(=O)[C@H](CC(=O)O)NC(=O)CNC(=O)[C@@H](N)CC(=O)O)[C@@H](C)CC)[C@@H](C)O)C(=O)N[C@@H](CCCCN)C(=O)O` (H-DGDITWDQLWDL[Nle]K-OH) stands 0.042 µM; under `CC[C@H](C)[C@H](NC(=O)[C@H](N)CC(=O)O)C(=O)N[C@H](C(=O)N[C@@H](Cc1c[nH]c2ccccc12)C(=O)N[C@@H](CC(=O)O)C(=O)N[C@@H](CCC(N)=O)C(=O)N[C@@H](CC(C)C)C(=O)N[C@@H](Cc1c[nH]c2ccccc12)C(=O)N[C@@H](CC(=O)O)C(=O)N[C@@H](CC(C)C)C(=O)N[C@@H](CCSC)C(=O)N[C@@H](CCCCN)C(=O)O)[C@@H](C)O` (H-[dD]ITWDQLWDLMK-OH), 0.025 µM.
Same read-out and setting: under `CC[C@@H](C)[C@@H](NC(=O)[C@@H](N)CC(=O)O)C(=O)N[C@H](C(=O)N[C@@H](Cc1c[nH]c2ccccc12)C(=O)N[C@@H](CC(=O)O)C(=O)N[C@@H](CCC(N)=O)C(=O)N[C@@H](CC(C)C)C(=O)N[C@@H](Cc1c[nH]c2ccccc12)C(=O)N[C@@H](CC(=O)O)C(=O)N[C@@H](CC(C)C)C(=O)N[C@@H](CCSC)C(=O)N[C@@H](CCCCN)C(=O)O)[C@@H](C)O` (H-D[dI]TWDQLWDLMK-OH) stands 0.027 µM.
The compound HITWDQLWRIMT displayed an IC50 of 0.028 µM.
On the same count and under the same terms, then `CC[C@H](C)[C@H](NC(=O)[C@@H](N)CC(=O)O)C(=O)N[C@@H](C(=O)N[C@@H](Cc1c[nH]c2ccccc12)C(=O)N[C@@H](CC(=O)O)C(=O)N[C@@H](CCC(N)=O)C(=O)N[C@@H](CC(C)C)C(=O)N[C@@H](Cc1c[nH]c2ccccc12)C(=O)N[C@@H](CC(=O)O)C(=O)N[C@@H](CC(C)C)C(=O)N[C@@H](CCSC)C(=O)N[C@@H](CCCCN)C(=O)O)[C@H](C)O` (H-DI[dT]WDQLWDLMK-OH), with 2.7 µM; and DGDITWDQLWDLMK, with 0.004 µM; and DYSWHDLWEMMS, with 0.016 µM.
Same read-out and setting: under `CCCC[C@H](NC(=O)[C@H](CC(C)C)NC(=O)[C@H](CC(=O)O)NC(=O)[C@H](Cc1c[nH]c2ccccc12)NC(=O)[C@H](CC(C)C)NC(=O)[C@H](CCC(N)=O)NC(=O)[C@H](CC(=O)O)NC(=O)[C@H](Cc1c[nH]c2ccccc12)NC(=O)[C@@H](NC(=O)[C@@H](NC(=O)[C@@H](N)CC(=O)O)[C@@H](C)CC)[C@@H](C)O)C(=O)N[C@@H](CCCCN)C(=O)O` (H-DITWDQLWDL[Nle]K-OH) stands 0.023 µM; under `CCCC[C@H](NC(=O)[C@H](CCCC)NC(=O)[C@H](CC(N)=O)NC(=O)[C@H](Cc1c[nH]c2ccccc12)NC(=O)[C@H](CC(C)C)NC(=O)[C@H](CCC(N)=O)NC(=O)[C@H](C)NC(=O)[C@H](Cc1c[nH]c2ccccc12)NC(=O)[C@@H](NC(=O)[C@@H](NC(=O)[C@@H](N)CC(=O)O)[C@@H](C)CC)[C@@H](C)O)C(=O)N[C@@H](CC(N)=O)C(=O)O` (H-DITWAQLWN[Nle][Nle]N-OH), 0.425 µM; under `CC[C@H](C)[C@H](NC(=O)[C@@H](N)CC(=O)O)C(=O)N[C@H](C(=O)N[C@@H](Cc1c[nH]c2ccccc12)C(=O)N[C@@H](CC(=O)O)C(=O)N[C@@H](CCC(N)=O)C(=O)N[C@@H](CC(C)C)C(=O)N[C@@H](Cc1c[nH]c2ccccc12)C(=O)N[C@@H](CC(=O)O)C(=O)N[C@H](CC(C)C)C(=O)N[C@@H](CCSC)C(=O)N[C@@H](CCCCN)C(=O)O)[C@@H](C)O` (H-DITWDQLWD[dL]MK-OH), 33 µM.
Still for that read-out and setting: then DITWDQLWDLMK-NH2, with 0.022 µM.

The same assay, now with this note: inhibits 50% of binding of radiolabeled standard to E-selectin.
ITWDQLWDLMK had an IC50 of 0.011 µM.
On the same count and under the same terms, under TWDQLWDLMK stands 12 µM.
